Experimental data from ChEMBL document CHEMBL1139129, “Bis-styrylpyridine and bis-styrylbenzene derivatives as inhibitors for Abeta fibril formation” (Bioorg Med Chem Lett, 2007).

Legend:
[1] = target: Amyloid-beta precursor protein (Homo sapiens, UniProt P05067); experiment: Inhibition of amyloid beta 42 fibril formation by thioflavin T assay
[2] = test system: HT-22; experiment: Cytotoxicity against HT22 cells assessed as cell viability at 10 uM by MTT assay relative to control; format: functional, Homo sapiens; conditions: Mus musculus, read-out: Activity

Chain of Amyloid-beta precursor protein (P05067 whole entry): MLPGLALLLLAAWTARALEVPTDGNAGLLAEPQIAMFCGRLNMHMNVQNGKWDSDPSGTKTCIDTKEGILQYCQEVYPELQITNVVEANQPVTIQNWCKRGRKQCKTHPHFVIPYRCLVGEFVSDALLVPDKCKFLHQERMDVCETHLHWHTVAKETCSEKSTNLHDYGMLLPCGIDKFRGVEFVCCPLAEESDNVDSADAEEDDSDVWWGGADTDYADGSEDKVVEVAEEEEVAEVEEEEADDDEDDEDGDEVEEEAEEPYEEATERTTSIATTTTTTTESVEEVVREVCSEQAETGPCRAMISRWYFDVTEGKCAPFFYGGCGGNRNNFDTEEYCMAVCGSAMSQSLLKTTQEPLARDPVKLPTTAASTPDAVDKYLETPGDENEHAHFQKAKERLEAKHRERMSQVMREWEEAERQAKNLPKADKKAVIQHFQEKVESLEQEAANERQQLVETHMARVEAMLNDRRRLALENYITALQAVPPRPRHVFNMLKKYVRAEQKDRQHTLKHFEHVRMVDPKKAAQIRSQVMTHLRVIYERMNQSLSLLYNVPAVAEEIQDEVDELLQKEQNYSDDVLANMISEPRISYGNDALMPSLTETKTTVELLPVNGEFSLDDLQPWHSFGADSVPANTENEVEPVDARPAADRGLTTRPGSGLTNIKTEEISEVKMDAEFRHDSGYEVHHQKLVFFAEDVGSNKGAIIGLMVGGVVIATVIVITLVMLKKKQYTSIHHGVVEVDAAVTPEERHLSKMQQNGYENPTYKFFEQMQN

SMILES | IC50 [1] | viability at 10 µM [2]
COc1ccc(/C=C/c2cc(Br)cc(/C=C/c3ccc(OC)c(OC)c3)c2)cc1OC | 20000 nM | –
CN(C)c1ccc(/C=C/c2cccc(/C=C/c3ccc(N(C)C)cc3)c2)cc1 | > 20000 nM | –
CN(C)c1ccc(/C=C/c2cc(Br)cc(/C=C/c3ccc(N(C)C)cc3)c2)cc1 | > 20000 nM | –
CN(C)c1ccc(/C=C/c2cc(I)cc(/C=C/c3ccc(N(C)C)cc3)c2)cc1 | > 20000 nM | –
COc1cc(/C=C/c2cc(Br)cc(/C=C/c3ccc(O)c(OC)c3)c2)ccc1O | 100 nM | –
COc1cc(/C=C/c2cccc(/C=C/c3ccc(O)c(OC)c3)n2)ccc1O | 800 nM | –
COc1cc(/C=C/c2cccc(/C=C/c3ccc(N)c(OC)c3)n2)ccc1N | 700 nM | –
COc1cc(/C=C/c2cc(Cl)cc(/C=C/c3ccc(O)c(OC)c3)n2)ccc1O | 1100 nM | –
CNc1ccc(/C=C/c2cccc(/C=C/c3ccc(NC)c(OC)c3)n2)cc1OC | 500 nM | –
CNc1ccc(/C=C/c2cccc(/C=C/c3ccc(NC)c(O)c3)n2)cc1O | 900 nM | –
COc1cc(/C=C/c2ccc(O)c(OC)c2)nc(/C=C/c2ccc(O)c(OC)c2)c1 | 1700 nM | –
COc1cc(/C=C/c2cc(C)cc(/C=C/c3ccc(O)c(OC)c3)n2)ccc1O | 1400 nM | –
COc1cc(/C=C/c2cc(N(C)C)cc(/C=C/c3ccc(O)c(OC)c3)n2)ccc1O | 1900 nM | –
CN(C)c1ccc(/C=C/c2cccc(/C=C/c3ccc(N(C)C)c(O)c3)n2)cc1O | 900 nM | –
COc1cc(/C=C/c2cc(Br)cc(/C=C/c3ccc(N)c(OC)c3)n2)ccc1N | 1100 nM | –
COc1cc(/C=C/c2cccc(/C=C/c3ccc(N)c(OC)c3)c2)ccc1N | 600 nM | –
CNc1ccc(/C=C/c2cccc(/C=C/c3ccc(NC)c(OC)c3)c2)cc1OC [listing 1 of 2 here] | 600 nM | –
COc1cc(/C=C/c2cccc(/C=C/c3ccc(N(C)C)c(OC)c3)c2)ccc1N(C)C | 1000 nM | –

SMILES | IC50 [1] | viability at 10 µM [2]
CNc1cc(/C=C/c2cccc(/C=C/c3ccc(OC)c(NC)c3)n2)ccc1OC | 1100 nM | –
CN(C)c1ccc(/C=C/c2cccc(/C=C/c3ccc(N(C)C)c(O)c3)c2)cc1O | 700 nM | –
COc1ccc(/C=C/c2cccc(/C=C/c3ccc(OC)c(N)c3)c2)cc1N | 300 nM | –
CNc1cc(/C=C/c2cccc(/C=C/c3ccc(OC)c(NC)c3)c2)ccc1OC | 1300 nM | –
CNc1cc(/C=C/c2cccc(/C=C/c3ccc(O)c(NC)c3)n2)ccc1O | 500 nM | –
COc1ccc(/C=C/c2cccc(/C=C/c3ccc(OC)c(N(C)C)c3)c2)cc1N(C)C | 1100 nM | –
CN(C)c1cc(/C=C/c2cccc(/C=C/c3ccc(O)c(N(C)C)c3)c2)ccc1O | 2700 nM | –
COc1cc(/C=C/c2cccc(/C=C/c3ccc(N4CCCC4)c(OC)c3)c2)ccc1N1CCCC1 | > 20000 nM | –
COc1cc(/C=C/c2cccc(/C=C/c3ccc(N(C)C)c(OC)c3)n2)ccc1N(C)C | 800 nM | –
COc1ccc(/C=C/c2cccc(/C=C/c3ccc(OC)c(N)c3)n2)cc1N | 600 nM | –
COc1ccc(/C=C/c2cccc(/C=C/c3ccc(OC)c(N(C)C)c3)n2)cc1N(C)C | 900 nM | –
COc1cc(/C=C/c2cc(Br)cc(/C=C/c3ccc(N)c(OC)c3)c2)ccc1N | 1800 nM | –
O=C(O)c1cc(/C=C/c2ccc(/C=C/c3ccc(O)c(C(=O)O)c3)c(I)c2)ccc1O | 8000 nM | –
CN(C)c1cc(/C=C/c2cccc(/C=C/c3ccc(O)c(N(C)C)c3)n2)ccc1O | 2300 nM | –
COc1cc(/C=C/c2cc(Br)cc(/C=C/c3ccc(O)c(OC)c3)n2)ccc1O | 1100 nM | –
CNc1ccc(/C=C/c2cccc(/C=C/c3ccc(NC)c(OC)c3)c2)cc1OC [listing 2 of 2 here] | – | 150%
CN(C)c1ccc2cc3ccc(N(C)C)cc3nc2c1 [ACRIDINE ORANGE] | 600 nM | –
COc1cc(/C=C/C(=O)CC(=O)/C=C/c2ccc(O)c(OC)c2)ccc1O [CURCUMIN] | – | 116%
